Measurements: the supplement of paper PMC10307832

Experiments:
Assay in all cases: relative viability (nuclei count vs DMSO), 5 days (fraction); higher = more cells survive
Afatinib = compound: CN(C)C/C=C/C(=O)Nc1cc2c(Nc3ccc(F)c(Cl)c3)ncnc2cc1O[C@H]1CCOC1 [Afatinib]
Summary of the method: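 Viability is treated-well nuclei as a fraction of vehicle-well nuclei, reported as the median across plates. Before counting, lung cancer cell lines were kept overnight at 37 °C in 1536-well plates, pinned with five √10-spaced library-drug doses on vehicle-anchored plates, and left 5 days without medium change, then fixed, permeabilised and Hoechst-stained in one step, imaged at 4× and counted by MetaXpress. A plate passed only if control CV was below 25% and at least one doubling occurred.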

Afatinib + Luminespib = compound: CN(C)C/C=C/C(=O)Nc1cc2c(Nc3ccc(F)c(Cl)c3)ncnc2cc1O[C@H]1CCOC1 [Afatinib] + CCNC(=O)c1noc(-c2cc(C(C)C)c(O)cc2O)c1-c1ccc(CN2CCOCC2)cc1 [Luminespib] (partner 0.01 µM)
Summary of the method: (§1)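 Cells from lung cancer lines were seeded into 1536-well plates and, one day later, dosed by pin tool. Treatments were either a single drug or a fixed dose of an anchor drug with five library-drug doses (not always all listed) in √10 steps. After 5 days, nuclei were stained in a one-step fixation (final 0.05% Triton X-100, 1% formaldehyde, 1 ug/ml Hoechst) and counted on 4× images, and relative viability is the treated-to-vehicle nuclei ratio, as the median of duplicate plates.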

Afatinib + Foretinib = compound: CN(C)C/C=C/C(=O)Nc1cc2c(Nc3ccc(F)c(Cl)c3)ncnc2cc1O[C@H]1CCOC1 [Afatinib] + COc1cc2c(Oc3ccc(NC(=O)C4(C(=O)Nc5ccc(F)cc5)CC4)cc3F)ccnc2cc1OCCCN1CCOCC1 [Foretinib] (partner 0.25 µM)
Summary of the method: as §1

Afatinib + OSI-027 = compound: CN(C)C/C=C/C(=O)Nc1cc2c(Nc3ccc(F)c(Cl)c3)ncnc2cc1O[C@H]1CCOC1 [Afatinib] + COc1cccc2cc(-c3nc([C@H]4CC[C@H](C(=O)O)CC4)n4ncnc(N)c34)[nH]c12 [OSI-027] (partner 0.5 µM)
Summary of the method: as §1

Afatinib + Tozasertib = compound: CN(C)C/C=C/C(=O)Nc1cc2c(Nc3ccc(F)c(Cl)c3)ncnc2cc1O[C@H]1CCOC1 [Afatinib] + Cc1cc(Nc2cc(N3CCN(C)CC3)nc(Sc3ccc(NC(=O)C4CC4)cc3)n2)n[nH]1 [Tozasertib] (partner 0.1 µM)
Summary of the method: as §1

Afatinib + Dasatinib = compound: CN(C)C/C=C/C(=O)Nc1cc2c(Nc3ccc(F)c(Cl)c3)ncnc2cc1O[C@H]1CCOC1 [Afatinib] + Cc1nc(Nc2ncc(C(=O)Nc3c(C)cccc3Cl)s2)cc(N2CCN(CCO)CC2)n1 [Dasatinib] (partner 0.075 µM)
Summary of the method: as §1

Afatinib + Phenformin = compound: CN(C)C/C=C/C(=O)Nc1cc2c(Nc3ccc(F)c(Cl)c3)ncnc2cc1O[C@H]1CCOC1 [Afatinib] + N=C(N)NC(=N)NCCc1ccccc1 [Phenformin] (partner 250 µM)
Summary of the method: as §1

Afatinib + Trametinib = compound: CN(C)C/C=C/C(=O)Nc1cc2c(Nc3ccc(F)c(Cl)c3)ncnc2cc1O[C@H]1CCOC1 [Afatinib] + CC(=O)Nc1cccc(-n2c(=O)n(C3CC3)c(=O)c3c(Nc4ccc(I)cc4F)n(C)c(=O)c(C)c32)c1 [Trametinib] (partner 0.02 µM)
Summary of the method: as §1

Afatinib + Palbociclib = compound: CN(C)C/C=C/C(=O)Nc1cc2c(Nc3ccc(F)c(Cl)c3)ncnc2cc1O[C@H]1CCOC1 [Afatinib] + CC(=O)c1c(C)c2cnc(Nc3ccc(N4CCNCC4)cn3)nc2n(C2CCCC2)c1=O [Palbociclib] (partner 0.5 µM)
Summary of the method: as §1

Afatinib + AZD7762 = compound: CN(C)C/C=C/C(=O)Nc1cc2c(Nc3ccc(F)c(Cl)c3)ncnc2cc1O[C@H]1CCOC1 [Afatinib] + NC(=O)Nc1cc(-c2cccc(F)c2)sc1C(=O)N[C@H]1CCCNC1 [AZD7762] (partner 0.2 µM)
Summary of the method: as §1

Afatinib + Pemetrexed = compound: CN(C)C/C=C/C(=O)Nc1cc2c(Nc3ccc(F)c(Cl)c3)ncnc2cc1O[C@H]1CCOC1 [Afatinib] + Nc1nc2[nH]cc(CCc3ccc(C(=O)N[C@@H](CCC(=O)O)C(=O)O)cc3)c2c(=O)[nH]1 [Pemetrexed] (partner 0.2 µM)
Summary of the method: as §1

Afatinib + Decitabine = compound: CN(C)C/C=C/C(=O)Nc1cc2c(Nc3ccc(F)c(Cl)c3)ncnc2cc1O[C@H]1CCOC1 [Afatinib] + Nc1ncn([C@H]2C[C@H](O)[C@@H](CO)O2)c(=O)n1 [Decitabine] (partner 2 µM)
Summary of the method: as §1

Afatinib + Vorinostat = compound: CN(C)C/C=C/C(=O)Nc1cc2c(Nc3ccc(F)c(Cl)c3)ncnc2cc1O[C@H]1CCOC1 [Afatinib] + O=C(CCCCCCC(=O)Nc1ccccc1)NO [Vorinostat] (partner 1 µM)
Summary of the method: as §1

Afatinib + Olaparib = compound: CN(C)C/C=C/C(=O)Nc1cc2c(Nc3ccc(F)c(Cl)c3)ncnc2cc1O[C@H]1CCOC1 [Afatinib] + O=C(c1cc(Cc2n[nH]c(=O)c3ccccc23)ccc1F)N1CCN(C(=O)C2CC2)CC1 [Olaparib] (partner 8 µM)
Summary of the method: as §1

NCI-H1623
relative viability (Afatinib; 0.005 µM): 0.822
relative viability (Afatinib; 0.01581 µM): 0.813
relative viability (Afatinib; 0.05 µM): 0.42
relative viability (Afatinib; 0.1581 µM): 0.221
relative viability (Afatinib; 0.5 µM): 0.267
relative viability (Afatinib + Luminespib; first compound 0.005 µM): 0.489
relative viability (Afatinib + Luminespib; first compound 0.01581 µM): 0.454
relative viability (Afatinib + Luminespib; first compound 0.05 µM): 0.325
relative viability (Afatinib + Luminespib; first compound 0.1581 µM): 0.214
relative viability (Afatinib + Luminespib; first compound 0.5 µM): 0.281
relative viability (Afatinib + Foretinib; first compound 0.005 µM): 0.694
relative viability (Afatinib + Foretinib; first compound 0.01581 µM): 0.597
relative viability (Afatinib + Foretinib; first compound 0.05 µM): 0.414
relative viability (Afatinib + Foretinib; first compound 0.1581 µM): 0.213
relative viability (Afatinib + OSI-027; first compound 0.005 µM): 0.394
relative viability (Afatinib + OSI-027; first compound 0.01581 µM): 0.324
relative viability (Afatinib + OSI-027; first compound 0.05 µM): 0.255
relative viability (Afatinib + OSI-027; first compound 0.1581 µM): 0.189
relative viability (Afatinib + OSI-027; first compound 0.5 µM): 0.243
relative viability (Afatinib + Tozasertib; first compound 0.005 µM): 0.397
relative viability (Afatinib + Tozasertib; first compound 0.01581 µM): 0.346
relative viability (Afatinib + Tozasertib; first compound 0.05 µM): 0.285
relative viability (Afatinib + Tozasertib; first compound 0.1581 µM): 0.121
relative viability (Afatinib + Tozasertib; first compound 0.5 µM): 0.148
relative viability (Afatinib + Dasatinib; first compound 0.005 µM): 0.446
relative viability (Afatinib + Dasatinib; first compound 0.01581 µM): 0.472
relative viability (Afatinib + Dasatinib; first compound 0.05 µM): 0.375
relative viability (Afatinib + Dasatinib; first compound 0.1581 µM): 0.198
relative viability (Afatinib + Dasatinib; first compound 0.5 µM): 0.226
relative viability (Afatinib + Phenformin; first compound 0.005 µM): 0.548
relative viability (Afatinib + Phenformin; first compound 0.01581 µM): 0.499
relative viability (Afatinib + Phenformin; first compound 0.05 µM): 0.36
relative viability (Afatinib + Phenformin; first compound 0.1581 µM): 0.16
relative viability (Afatinib + Phenformin; first compound 0.5 µM): 0.431

SW 900
relative viability (Afatinib; 0.005 µM): 0.951
relative viability (Afatinib; 0.01581 µM): 0.692
relative viability (Afatinib; 0.05 µM): 0.844
relative viability (Afatinib; 0.1581 µM): 0.872
relative viability (Afatinib; 0.5 µM): 0.828
relative viability (Afatinib + Trametinib; first compound 0.005 µM): 0.572
relative viability (Afatinib + Trametinib; first compound 0.01581 µM): 0.657
relative viability (Afatinib + Trametinib; first compound 0.05 µM): 0.759
relative viability (Afatinib + Trametinib; first compound 0.1581 µM): 0.745
relative viability (Afatinib + Trametinib; first compound 0.5 µM): 0.581
relative viability (Afatinib + Palbociclib; first compound 0.005 µM): 0.464
relative viability (Afatinib + Palbociclib; first compound 0.01581 µM): 0.354
relative viability (Afatinib + Palbociclib; first compound 0.05 µM): 0.438
relative viability (Afatinib + Palbociclib; first compound 0.1581 µM): 0.43
relative viability (Afatinib + Palbociclib; first compound 0.5 µM): 0.49
relative viability (Afatinib + Luminespib; first compound 0.005 µM): 0.182
relative viability (Afatinib + Luminespib; first compound 0.01581 µM): 0.198
relative viability (Afatinib + Luminespib; first compound 0.1581 µM): 0.187
relative viability (Afatinib + Luminespib; first compound 0.5 µM): 0.173
relative viability (Afatinib + Foretinib; first compound 0.005 µM): 1.06
relative viability (Afatinib + Foretinib; first compound 0.01581 µM): 1.18
relative viability (Afatinib + Foretinib; first compound 0.05 µM): 0.873
relative viability (Afatinib + Foretinib; first compound 0.1581 µM): 0.725
relative viability (Afatinib + Foretinib; first compound 0.5 µM): 0.679
relative viability (Afatinib + OSI-027; first compound 0.005 µM): 0.668
relative viability (Afatinib + OSI-027; first compound 0.01581 µM): 0.395
relative viability (Afatinib + OSI-027; first compound 0.05 µM): 0.605
relative viability (Afatinib + OSI-027; first compound 0.1581 µM): 0.639
relative viability (Afatinib + OSI-027; first compound 0.5 µM): 0.347
relative viability (Afatinib + Tozasertib; first compound 0.005 µM): 0.576
relative viability (Afatinib + Tozasertib; first compound 0.01581 µM): 0.646
relative viability (Afatinib + Tozasertib; first compound 0.05 µM): 0.61
relative viability (Afatinib + Tozasertib; first compound 0.1581 µM): 0.438
relative viability (Afatinib + Tozasertib; first compound 0.5 µM): 0.444
relative viability (Afatinib + Dasatinib; first compound 0.005 µM): 0.622
relative viability (Afatinib + Dasatinib; first compound 0.01581 µM): 0.323
relative viability (Afatinib + Dasatinib; first compound 0.05 µM): 0.683
relative viability (Afatinib + Dasatinib; first compound 0.1581 µM): 0.547
relative viability (Afatinib + Dasatinib; first compound 0.5 µM): 0.435
relative viability (Afatinib + Phenformin; first compound 0.005 µM): 0.642
relative viability (Afatinib + Phenformin; first compound 0.01581 µM): 0.499
relative viability (Afatinib + Phenformin; first compound 0.05 µM): 0.682
relative viability (Afatinib + Phenformin; first compound 0.1581 µM): 0.486
relative viability (Afatinib + Phenformin; first compound 0.5 µM): 0.399
relative viability (Afatinib + AZD7762; first compound 0.005 µM): 0.48
relative viability (Afatinib + AZD7762; first compound 0.01581 µM): 0.546
relative viability (Afatinib + AZD7762; first compound 0.05 µM): 0.615
relative viability (Afatinib + AZD7762; first compound 0.1581 µM): 0.501
relative viability (Afatinib + AZD7762; first compound 0.5 µM): 0.548
relative viability (Afatinib + Pemetrexed; first compound 0.005 µM): 0.467
relative viability (Afatinib + Pemetrexed; first compound 0.01581 µM): 0.445
relative viability (Afatinib + Pemetrexed; first compound 0.05 µM): 0.497
relative viability (Afatinib + Pemetrexed; first compound 0.1581 µM): 0.487
relative viability (Afatinib + Pemetrexed; first compound 0.5 µM): 0.448
relative viability (Afatinib + Decitabine; first compound 0.005 µM): 0.502
relative viability (Afatinib + Decitabine; first compound 0.01581 µM): 0.334
relative viability (Afatinib + Decitabine; first compound 0.05 µM): 0.378
relative viability (Afatinib + Decitabine; first compound 0.1581 µM): 0.398
relative viability (Afatinib + Decitabine; first compound 0.5 µM): 0.443
relative viability (Afatinib + Vorinostat; first compound 0.005 µM): 0.597
relative viability (Afatinib + Vorinostat; first compound 0.01581 µM): 0.364
relative viability (Afatinib + Vorinostat; first compound 0.05 µM): 0.544
relative viability (Afatinib + Vorinostat; first compound 0.1581 µM): 0.428
relative viability (Afatinib + Vorinostat; first compound 0.5 µM): 0.461
relative viability (Afatinib + Olaparib; first compound 0.005 µM): 0.757
relative viability (Afatinib + Olaparib; first compound 0.01581 µM): 0.726
relative viability (Afatinib + Olaparib; first compound 0.05 µM): 0.89
relative viability (Afatinib + Olaparib; first compound 0.1581 µM): 0.664
relative viability (Afatinib + Olaparib; first compound 0.5 µM): 0.77
